According to patent US9849190B2, “Peptide having cancer selective translocation function and use thereof” (SNU R&DB FOUNDATION, priority 2012, dated 2017):

Legend:
[1] = tested on: tumor cell line (MDA-MB-231, ATCC); assay: Tumor cell penetration of fluorescent-labelled peptides (FACS, confocal microscopy); type: cell-based; conditions: for fluorescence of the tumor cells measured by FACS: MDA-MB-231, 60 minutes after inoculation, various peptide concentrations, FIG. 1A; for ability to penetrate the tumor cell line, confocal laser scanning microscope: MDA-MB-231, various peptide concentrations, FIG. 1B
Experimental: In order to test the tumor cell-targeting and tumor cell-penetrating abilities of the VPTD peptide of SEQ ID NO: 1 and the HPTD peptide of […], prepared in Example 1, the termini of the prepared peptides were labeled with a fluorescent dye, and then each of the peptides was inoculated into a tumor cell line (MDA-MB-231, ATCC) at various concentrations.
60 minutes after the inoculation, the fluorescence of the cells was measured by FACS, and the results of the measurement are shown in FIGS. 1A and 1B.

VEGF = assay: Slot-blot analysis of binding to VEGF; conditions: FIG. 2
From the text: (§1) This is believed to be because the tumor-penetrating ability of the VPTD peptide of the present invention was maximized in the tumor tissue and the VPTD peptide did bind specifically to VEGF to inhibit vascular formation essential for the formation and progression of tumors. […] As a result, it could be seen that the VPTD peptide and the HPTD peptide did all bind to VEGF and heparin, which are overexpressed in tumor cells or tumor tissue.

[2] = Slot-blot analysis of binding to heparin; conditions: FIG. 2
From the text: as §1

tumor induced in mice = assay: Tumor inhibitory effect in tumor-induced mice; type: in vivo; conditions: injected, volume measured every 3-4 days for 30 days, versus control, FIG. 3
Experimental: In order to test the effects of the VPTD peptide of SEQ ID NO: 1 (VSRRRRRRGGRRRR) and the HPTD peptide of SEQ ID NO: (CSSRKKNPNCRRH), prepared in Example 1, and the tumor-targeting and tumor-penetrating peptide-drug conjugates prepared in Example 2, a tumor was induced in mice, and when the tumor grew to a predetermined size, each of the peptides prepared in Example 1 and the tumor-targeting and tumor-penetrating peptide-drug conjugates prepared in Example 2 was injected into the mice. After injection, the volume of the tumor was measured at intervals of 3-4 days for 30 days. On day 30, the mice were sacrificed, and the tumor was extracted and photographed.
as §1

Row | binding to VEGF (VEGF) | binding to heparin [2] | Sequence | fluorescence of the tumor cells measured by FACS [1] | ability to penetrate the tumor cell line, confocal laser scanning microscope [1] | progression of the tumor (tumor volume) (tumor induced in mice)
1 | did all bind | did all bind | CSSRKKNPNCRRH (HPTD) [HPTD peptide] | increased in a manner dependent on the concentration of the peptide | increased in a manner dependent on the concentration of the peptide | –
2 | did all bind | did all bind | VSRRRRRRGGRRRR (VPTD) [VPTD peptide] | increased in a manner dependent on the concentration of the peptide | increased in a manner dependent on the concentration of the peptide | significantly inhibited
